Patent publication US10039806B2, “Methods and compositions for treating antiprogestin-resistant cancers” (Fundación Sales, priority 2011, dated 2018)

Columns and labels:
59-HI tumors = assay: Constitutive-resistant tumor transplanted s.c. in BALB/c mice; type: in vivo, mouse
Protocol: (§1) C4-2-HI, 59-HI, and C4-HIR tumors were transplanted s.c nearby the mammary gland 4th in syngenic mice, and measured every 2 days (length and width). Treatments were initiated when the tumors were palpable. […] The mice were inoculated intraperitoneally (i.p.) with 0.75 mg/kg 5azadC (for C4-2-HI and C4-HIR tumors) or 1 mg/kg 5azadC (for 59-HI tumors) every other day. All the experiments were repeated twice using five mice per group. The animals were euthanized after 13 days of treatment, and tumor samples were removed and frozen at −80° C. or fixed in 10% formaldehyde.
(§2) Cytosolic or nuclear extracts were processed for western blots as described previously. The cells were lysed using Mammalian Protein Extraction Reagent (Pierce, Rockford, Ill.) according the manufacturer's instructions. The western blot membranes were incubated with antibodies against PR (C-19, Santa Cruz Biotech, CA, or Ab-7, Neomarkers, Lab Vision Corp, Fremont, Calif.), PRB (Ab-6, Neomarkers), ERKs (SC-94, Santa Cruz Biotech), E-Cad (610182, BD), Actin (1-19, Santa Cruz Biotech), DnmtI, Dnmt3a and Dnmt3b (H-300, H-295, and H-230, respectively, Santa Cruz Biotech), RARβ (SC-14028, Santa Cruz Biotech), PTEN Ab32199, Abcam), p16 (SC-1207, Santa Cruz Biotech), Rb (SC-50, Santa Cruz Biotech), or glucocorticoid receptors (GRs) (SC-1004, Santa Cruz Biotech) overnight at 4° C., at a concentration of 2 μg/ml in PBST (0.8% NaCl, 0.02% KCl, 0.144% Na2PO4, 0.024% KH2PO4, pH 7.4, 0.1% Tween 20). The band intensities from 3 to 4 different tumor samples indifferent western blots were quantified using Image Quant software.
(§3) Sections of formalin-fixed, paraffin-embedded tissue were processed as previously described and stained with the PRA-specific antibody (C-19) using the avidin-biotin-peroxidase complex technique (Vectastain Elite ABC kit; Vector), as described previously.
(§4) H&E stained sections of livers, spleens, and kidneys from the 5azadC-treated mice (1 mg/kg or 0.75 mg/kg/every other day; n=5) were studied by an expert mouse pathologist. The percentage of tumor stoma versus tumor parenchyma was quantified with the ImageJ software in treated and untreated tumors. The stromal area in relation to the total tumor area was calculated in five representative fields of each sample, using 400× magnification, in three different tumor samples of each group, and the mean±SEM was calculated. Mitotic and apoptotic indices were counted in 10 and 15 high-power fields (HPFs), respectively, of each section, using 1000× magnification, and expressed as the mean±SEM of the percentage of the ratios between the total number of events (mitosis or apoptosis) and the total cell number per HPF. Mitotic figures were identified morphologically by the condensed “hairy” aspect of the chromosomes. Morphological identification of apoptosis was performed according to criteria previously reported, which correlated with the deoxynucleotidyl transferase mediated dUTP-biotin nick end labeling (TUNEL) method.
as §1, with “C4-2-HI” for “C4-2-HI, 59-HI,”, “59-HI” for “C4-HIR”, “every other day” for “(for C4-2-HI”, “s.c. with” for “C4-HIR tumors) or”, “TSA” for “5azadC (for 59-HI tumors)”, “−80 C” for “−80° C.”

C4-2-HI tumors = assay: as above; type: in vivo, mouse
Protocol: as §1, §2, §3, §4
as §1, with “C4-2-HI” for “C4-2-HI, 59-HI,”, “59-HI” for “C4-HIR”, “every other day” for “(for C4-2-HI”, “s.c. with” for “C4-HIR tumors) or”, “TSA” for “5azadC (for 59-HI tumors)”, “−80 C” for “−80° C.”

[1] = Histology of livers, spleens and kidneys of 5azadC-treated mice; type: in vivo, mouse; conditions: 0.75 and 1 mg/kg every other day
Protocol: as §4

[2] = tested on: PRA and PRB in C4-2-HI and 59-HI cells; assay: PR isoform expression after 5azadC in vitro (immunofluorescence, western blot); type: cell-based, mouse; conditions: 96 h
Protocol: C4-2-HI and 59-HI epithelial cells from primary cell cultures were allowed to attach for 24 h. The medium was replaced with fresh medium with 10% FCS, and 5azadC was added for 96 h. The medium was refreshed daily. Cells were processed for western blot or immunofluorescence to evaluate PR expression.
Cytosolic or nuclear extracts were processed for western blots as described previously. The cells were lysed using Mammalian Protein Extraction Reagent (Pierce, Rockford, Ill.) according the manufacturer's instructions. […] The band intensities from 3 to 4 different tumor samples indifferent western blots were quantified using Image Quant software.
Frozen sections or cells grown in chamber slides, fixed in 70% ethanol for 1 h, were incubated with antibodies recognizing Dnmt1, Dnmt3a, Dnmt3b, PRA (Ab-7), RPB (Ab-6), or GR, in blocking buffer at a 1:200 dilution overnight at 4° C. […] Stained cells were analyzed using a Nikon Eclipse E800 Laser Confocal Microscope and EZ-C1 2.20 software. Cell staining was quantified using Image Quant software.

GR in C4-2-HI cells = assay: GR expression in vitro (immunofluorescence); type: cell-based, mouse; conditions: 5×10^-7 M, 96 h
Protocol: Frozen sections or cells grown in chamber slides, fixed in 70% ethanol for 1 h, were incubated with antibodies recognizing Dnmt1, Dnmt3a, Dnmt3b, PRA (Ab-7), RPB (Ab-6), or GR, in blocking buffer at a 1:200 dilution overnight at 4° C. They were then incubated with a FITC conjugated anti-rabbit (FI-1000, Vector Laboratories Burlingame, Calif.; 1:100 dilution) secondary antibody for 1 h at room temperature. Nuclei were stained with propidium iodide (PI, Sigma). The slides were mounted using Vectashield (Vector Laboratories). Stained cells were analyzed using a Nikon Eclipse E800 Laser Confocal Microscope and EZ-C1 2.20 software. Cell staining was quantified using Image Quant software.

C4-2-HI and 59-HI cells = assay: (3H)-thymidine incorporation with 5azadC and RU-486 in 10% FCS; type: cell-based, mouse; conditions: 5 μM 5azadC, 100 nM RU-486; P<0.001
Protocol: (3H)-thymidine-uptake was used as an indirect method to evaluate cell proliferation. In brief, cells were seeded into 96-well microplates. After attachment (24 h), the cells were incubated for 24 h with 1% steroid-stripped FCS and then for 48 h with the experimental solutions to be tested in 1% chFCS. Fifty percent of the medium was replaced with fresh medium every 24 h. […] In experiments in which 5azadC was used, the experiments were carried out using proliferating cells (presence of 10% FCS) to guarantee the effect of the demethylating agent. Three different experiments were made using octuplicates, and the means and standard deviations of one representative experiment of the other three are shown.

T47D cells = conditions: 5% FCS; cited from earlier work
[3] = tested on: C4-HI or C4-HIR epithelial cells with carcinoma-associated fibroblasts; assay: (3H)-thymidine uptake, co-cultures with carcinoma-associated fibroblasts; type: cell-based, mouse; conditions: own or other tumor's fibroblasts
Protocol: Trypsinized cells were resuspended and equal amounts of epithelial cells and carcinoma-associated fibroblasts were seeded with 10% FCS that was replaced after attachment by 1% steroid-stripped FCS. […] The same amount of epithelial cells or carcinoma-associated fibroblasts or double the amount of purified cells was used for comparison.
(§5) (3H)-thymidine-uptake was used as an indirect method to evaluate cell proliferation. In brief, cells were seeded into 96-well microplates. After attachment (24 h), the cells were incubated for 24 h with 1% steroid-stripped FCS and then for 48 h with the experimental solutions to be tested in 1% chFCS. Fifty percent of the medium was replaced with fresh medium every 24 h. The cells were incubated with 0.4 μCi of 3H-thymidine (specific activity: 20 Ci/mmol) for 24 h, trypsinized, and harvested in a cell harvester. In experiments in which 5azadC was used, the experiments were carried out using proliferating cells (presence of 10% FCS) to guarantee the effect of the demethylating agent. Three different experiments were made using octuplicates, and the means and standard deviations of one representative experiment of the other three are shown. The results are expressed as the proliferation index (cpm […] experimental group/cpm control; mean±SEM).

C4-HI cells = assay: (3H)-thymidine uptake, primary cultures of purified epithelial cells; type: cell-based, mouse; conditions: 48 h, 1% chFCS; P<0.001
Protocol: (§6) Epithelial cells and carcinoma-associated fibroblasts were separated by differential sedimentation and plated with 10% FCS. Carcinoma-associated fibroblasts were allowed to attach for 0.5 h and the epithelial cells for 24-48 h. The medium was replaced by fresh medium with 10% FCS; thereafter, it was changed every 2-3 days.
as §5

C4-2-HI cells = assay: as above; type: cell-based, mouse; conditions: 48 h, 1% chFCS
Protocol: as §6, §5

C4-HIR cells = assay: as above; type: cell-based, mouse; conditions: 48 h, 1% chFCS; P<0.001
Protocol: as §6, §5

SMILES | PRA staining (immunohistochemistry) (59-HI tumors; 5azadC-treated tumors) | PRA expression (western blots) (59-HI tumors; P<0.01) | tumor growth (59-HI tumors; RU-486 12 mg/kg/day s.c., 5azadC 1 mg/kg every other day i.p., 13 days) | PRB level (59-HI tumors; not shown) | PRA staining (immunohistochemistry) (C4-2-HI tumors; 5azadC-treated vs control tumors) | PRA expression (western blots) (C4-2-HI tumors; P<0.01) | tumor growth (C4-2-HI tumors; RU-486 12 mg/kg/day s.c., 5azadC 0.75 mg/kg every other day i.p., 13 days) | PRB level (C4-2-HI tumors; not shown) | expression of GR (western blots) (C4-2-HI tumors; tumors from 5azadC-treated mice) | Histological evaluation of liver, spleen, and kidney [1] | PRA expression ([2]; 5×10^-7 M (C4-2-HI), 5×10^-6 M (59-HI), P<0.001) | PRB staining (Ab-6 antibody) [2] | expression of GR (immunofluorescence) (GR in C4-2-HI cells) | cell proliferation, (3H)-thymidine incorporation (C4-2-HI and 59-HI cells) | effects on T47D cells (T47D cells) | co-culture cell proliferation [3] | cell proliferation (proliferation index) (C4-HI cells) | cell proliferation (proliferation index) (C4-2-HI cells) | cell proliferation (proliferation index) (C4-HIR cells)
Nc1ncn([C@H]2C[C@H](O)[C@@H](CO)O2)c(=O)n1 [5azadC, 5-aza-2′-deoxycytidine] | only cytoplasmic and perinuclear PRA staining | increase in PRA expression | no significant differences | not significantly modified | increase in nuclear and cytoplasmic PRA staining | increase in PRA expression | no significant differences | not significantly modified | decreased | no signs of toxicity | increase in PRA expression | no significant changes | decreased | did not alter cell proliferation | – | – | – | – | –
CC(=O)O[C@]1(C(C)=O)CC[C@H]2[C@@H]3C[C@H](C)C4=CC(=O)CC[C@]4(C)[C@H]3CC[C@@]21C [MPA, medroxyprogesterone acetate] | – | – | – | – | – | – | – | – | – | – | – | – | – | – | inhibitory effects | stimulated | strong proliferative effect | no differences were observed | proliferative effect
